From PubChem BioAssay AID256 (DTP/NCI, 2004)
“And” between values parts separate entries of the source, which are not always exact repeats. Equal values may be shown once. Toxic doses and inconclusive results are not listed.

Test system: CD2F1 mice, L1210 leukemia ip, survival T/C
Assay: NCI In Vivo Anticancer Drug Screen. Data for tumor model L1210 Leukemia (intraperitoneal) in CD2F1 (CDF1) mice
Details: higher = longer survival
Method in brief: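 Ratio T/C, where T is the treated-group value and C the vehicle-dosed control value, from mice implanted with a transplantable tumor.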

[1] = endpoint: mean survival time, dose: 100.0 mg/kg/injection, schedule: Q04DX003 (ip), vehicle: saline with Tween-80
[2] = endpoint: mean survival time, dose: 200.0 mg/kg/injection, schedule: Q04DX003 (ip), vehicle: saline with Tween-80
[3] = endpoint: mean survival time, dose: 400.0 mg/kg/injection, schedule: Q04DX003 (ip), vehicle: saline with Tween-80
[4] = endpoint: mean survival time, dose: 100.0 mg/kg/injection, schedule: Q01DX009 (ip), vehicle: saline with Tween-80
[5] = endpoint: mean survival time, dose: 200.0 mg/kg/injection, schedule: Q01DX009 (ip), vehicle: saline with Tween-80
[6] = endpoint: mean survival time, dose: 400.0 mg/kg/injection, schedule: Q01DX009 (ip), vehicle: saline with Tween-80

**Q.** How did the T/C (endpoint: median survival time, dose: 1.25 mg/kg/injection, schedule: Q01DX009 (ip), vehicle: suspension in saline) turn out when `CC1=C[P+](c2ccccc2)(c2ccccc2)C=C(c2ccccc2)O1` was run?
**A.** The T/C was 108 % of control.

**Q.** What about the T/C (endpoint: median survival time, dose: 2.5 mg/kg/injection, schedule: Q01DX009 (ip), vehicle: suspension in saline) of the same molecule?
**A.** The T/C was 111 % of control.

**Q.** And the T/C (endpoint: median survival time, dose: 5.0 mg/kg/injection, schedule: Q01DX009 (ip), vehicle: suspension in saline)?
**A.** Its T/C is 113 % of control.

**Q.** What about the T/C (endpoint: median survival time, dose: 10.0 mg/kg/injection, schedule: Q01DX009 (ip), vehicle: suspension in saline) of the same molecule?
**A.** Its T/C is 123 % of control.

**Q.** And the T/C (endpoint: median survival time, dose: 20.0 mg/kg/injection, schedule: Q01DX009 (ip), vehicle: suspension in saline)?
**A.** The T/C was 104 % of control.

**Q.** With `CN=C1CCCCN1` as the molecule, how does the T/C (endpoint: mean survival time, dose: 100.0 mg/kg/injection, schedule: Q04DX003 (ip), vehicle: saline sonified) read?
**A.** The T/C was 103 % of control.

**Q.** What about the T/C (endpoint: mean survival time, dose: 200.0 mg/kg/injection, schedule: Q04DX003 (ip), vehicle: saline sonified) of the same molecule?
**A.** Its T/C is 104 % of control.

**Q.** What about the T/C (endpoint: mean survival time, dose: 400.0 mg/kg/injection, schedule: Q04DX003 (ip), vehicle: saline sonified) of the same molecule?
**A.** The T/C was 103 % of control.

**Q.** How did the T/C (endpoint: mean survival time, dose: 6.25 mg/kg/injection, schedule: Q01DX009 (ip), vehicle: water) turn out when `CCCCC/C=C\C/C=C\CCCCCCCC(=O)OCC1CNP(=O)(N(CCCl)CCCl)O1` (stereo not given) was run?
**A.** Its T/C is 103 % of control.

**Q.** And the T/C (endpoint: mean survival time, dose: 12.5 mg/kg/injection, schedule: Q01DX009 (ip), vehicle: water)?
**A.** The T/C was 95 % of control.

**Q.** What about the T/C (endpoint: mean survival time, dose: 23.3 mg/kg/injection, schedule: Q01DX001 (ip), vehicle: DMSO) of the same molecule?
**A.** Its T/C is 101 % of control.

**Q.** What about the T/C (endpoint: mean survival time, dose: 25.0 mg/kg/injection, schedule: Q01DX009 (ip), vehicle: water) of the same molecule?
**A.** The T/C was 95 % of control.

**Q.** And the T/C (endpoint: mean survival time, dose: 38.9 mg/kg/injection, schedule: Q01DX001 (ip), vehicle: DMSO)?
**A.** Its T/C is 98 % of control.

**Q.** What about the T/C (endpoint: mean survival time, dose: 50.0 mg/kg/injection, schedule: Q01DX009 (ip), vehicle: water) of the same molecule?
**A.** The T/C was 97 % of control.

**Q.** What about the T/C (endpoint: mean survival time, dose: 64.8 mg/kg/injection, schedule: Q01DX001 (ip), vehicle: DMSO) of the same molecule?
**A.** Its T/C is 98 % of control.

**Q.** And the T/C (endpoint: mean survival time, dose: 100.0 mg/kg/injection, schedule: Q01DX009 (ip), vehicle: water)?
**A.** The T/C was 103 % of control.

**Q.** What about the T/C (endpoint: mean survival time, dose: 108.0 mg/kg/injection, schedule: Q01DX001 (ip), vehicle: DMSO) of the same molecule?
**A.** The T/C was 97 % of control.

**Q.** What about the T/C (endpoint: mean survival time, dose: 180.0 mg/kg/injection, schedule: Q01DX001 (ip), vehicle: DMSO) of the same molecule?
**A.** The T/C was 98 % of control.

**Q.** What about the T/C (endpoint: mean survival time, dose: 200.0 mg/kg/injection, schedule: Q01DX009 (ip), vehicle: water) of the same molecule?
**A.** The T/C was 103 % of control.

**Q.** And the T/C (endpoint: mean survival time, dose: 300.0 mg/kg/injection, schedule: Q01DX001 (ip), vehicle: DMSO)?
**A.** Its T/C is 97 % of control.

**Q.** With `COc1ccc(F)c(NC(=O)/C=N/O)c1` as the molecule, how does the T/C [1] read?
**A.** The T/C was 102 % of control.

**Q.** And the T/C [2]?
**A.** Its T/C is 102 % of control.

**Q.** And the T/C [3]?
**A.** Its T/C is 100 % of control.

**Q.** What does the source list for `NC(=S)NNC(=O)c1ccccc1`?
**A.** T/C (endpoint: mean survival time, dose: 100.0 mg/kg/injection, schedule: Q04DX003 (ip), vehicle: Klucel (hydroxypropylcellulose) (HPC)): 91 % of control; T/C (endpoint: mean survival time, dose: 200.0 mg/kg/injection, schedule: Q04DX003 (ip), vehicle: Klucel (hydroxypropylcellulose) (HPC)): 91 % of control

**Q.** Which results are given for `O=C(COc1ccc(Cl)c(Cl)c1)NCc1cccc(Cl)c1`?
**A.** T/C [1]: 95 % of control; T/C [2]: 93 % of control; T/C [3]: 95 % of control

**Q.** What does the source list for `O=[N+]([O-])c1ccccc1NC(Nc1ccccc1[N+](=O)[O-])C(Cl)(Cl)Cl`?
**A.** T/C [4]: 98 % of control; T/C [5]: 101 % of control; T/C [6]: 101 % of control

**Q.** `O=C(C(=O)N1CC2C=CC1C2)c1c[nH]c2ccccc12` (stereo not given) was tested. Which T/C [4] did it give?
**A.** Its T/C is 101 % of control.

**Q.** And the T/C [1]?
**A.** The T/C was 102 % of control.

**Q.** What about the T/C [5] of the same molecule?
**A.** The T/C was 97 % of control.

**Q.** And the T/C [2]?
**A.** Its T/C is 97 % of control.

**Q.** And the T/C [6]?
**A.** The T/C was 101 % of control.

**Q.** And the T/C [3]?
**A.** The T/C was 92 % of control.

**Q.** Which T/C (endpoint: median survival time, dose: 10.0 mg/kg/injection, schedule: Q04DX003 (ip), vehicle: Klucel (hydroxypropylcellulose) (HPC)) does the source give for `CC1CC([NH-])C([NH-])C(C)(C)C1.[Cl][Pt+2][Cl]` (stereo not given) here?
**A.** Its T/C is 117 % of control.

**Q.** What about the T/C (endpoint: median survival time, dose: 50.0 mg/kg/injection, schedule: Q04DX003 (ip), vehicle: Klucel + Tween-80) of the same molecule?
**A.** The T/C was 153 % of control.

**Q.** And the T/C (endpoint: median survival time, dose: 100.0 mg/kg/injection, schedule: Q04DX003 (ip), vehicle: Klucel + Tween-80)?
**A.** Its T/C is 155 % of control.

**Q.** Which results are given for `COc1ccc(C(CO)CC(=O)NCCN(C)C)cc1` (stereo not given)?
**A.** T/C (endpoint: mean survival time, dose: 100.0 mg/kg/injection, schedule: Q04DX002 (ip), vehicle: saline): 100 % of control; T/C (endpoint: mean survival time, dose: 200.0 mg/kg/injection, schedule: Q04DX002 (ip), vehicle: saline): 107 % of control

**Q.** `C(#Cc1ccccn1)c1ccccn1.[Pt].c1ccc([PH+](c2ccccc2)c2ccccc2)cc1.c1ccc([PH+](c2ccccc2)c2ccccc2)cc1` was tested. Which T/C (endpoint: median survival time, dose: 3.13 mg/kg/injection, schedule: Q04DX003 (ip), vehicle: distilled water + Tween-80) did it give?
**A.** The T/C was 104 % of control.

**Q.** And the T/C (endpoint: median survival time, dose: 6.25 mg/kg/injection, schedule: Q04DX003 (ip), vehicle: distilled water + Tween-80)?
**A.** Its T/C is 105 % of control.

**Q.** And the T/C (endpoint: median survival time, dose: 12.5 mg/kg/injection, schedule: Q04DX003 (ip), vehicle: distilled water + Tween-80)?
**A.** Its T/C is 100 % of control.

**Q.** What about the T/C (endpoint: median survival time, dose: 25.0 mg/kg/injection, schedule: Q04DX003 (ip), vehicle: distilled water + Tween-80) of the same molecule?
**A.** Its T/C is 97 % of control.

**Q.** What about the T/C (endpoint: median survival time, dose: 50.0 mg/kg/injection, schedule: Q04DX003 (ip), vehicle: distilled water + Tween-80) of the same molecule?
**A.** Its T/C is 96 % of control.

**Q.** And the T/C (endpoint: median survival time, dose: 100.0 mg/kg/injection, schedule: Q04DX003 (ip), vehicle: distilled water + Tween-80)?
**A.** Its T/C is 94 % of control.

**Q.** `CC(C)(C)OC(=O)NC(CCC(=O)OCc1ccccc1)C(=O)O` (stereo not given) (tested in a mixture with another compound) was tested. Which T/C (endpoint: mean survival time, dose: 25.0 mg/kg/injection, schedule: Q01DX009 (ip), vehicle: saline with Tween-80) did it give?
**A.** Its T/C is 91 % of control.

**Q.** What about the T/C [4] of the same molecule?
**A.** The T/C was 96 % of control and 98 % of control.
